Laboratory results published in patent EP0000693A1, “Aminophenoxymethyl-2-morpholine derivatives, the preparation thereof and pharmaceuticals containing them” (Dr. Karl Thomae GmbH, priority 1977, dated 1979).
Counter-ions that a name gives are not always drawn. Like-named read-outs stand apart in the source and are kept apart here.

Assays:
[1] = system: maximalen Elektrokrampf bei Mäusen; assay: Anticonvulsant effect: maximal electroshock seizure (Versuch 2); type: in vivo, Maus; settings: Mus musculus, 2.5 h
Source text: (§1) Beispielsweise wurden die Verbindungen • A = 2-(2-Amino-3,5-dibrom-phenoxy-methylen)-morpholin-hydrochlorid, • B = 2-(4-Amino-3,5-dibrom-phenoxy-methylen)-4-isopropyl-morpholin- hydrochlorid, • C = 2-(4-Amino-3,5-dibrom-phenoxy-methylen)-morpholin-hydrochlorid, • D = 2-(2-Amino-3,5-dibrom-phenoxy-methylen)-4-tert.butyl-morpholin-hydrochlorid und • E = 2-(2-Amino-5-brom-4-chlor-phenoxy-methylen)-4-isopronyl- morpholin-dihydrochlorid ,im Vergleich zu • F = 2-(2-Äthoxy-phenoxy-methylen)-morpholin-hydrochlorid auf ihre biologischen Wirkungen wie folgt untersucht: • 1. […] Bei 20 - 26 g schweren männlichen Mäusen wurde durch 3 mg/kg Reserpin s.c. Hypothermie erzeugt. 17 Stunden später wurde die Körpertemperatur mittels eines elektrischen Schlundsondenthermometers gemessen. Anschließend wurden Gruppen von 6 - 10 Tieren die zu prüfenden Substanzen in der Dosis von 40 mg/kg p.o. verabreicht. Kontrollgruppen erhielten das Lösungsmittel (Aqua dest.). Die Körpertemperaturen wurden 1 - 4 Stunden nach Substanzverabreichung in stündlichem Abstand gemessen. Zur Auswertung wurden der maximale Wiederanstieg der Körpertemperatur der Substanzgruppe mit den Temperaturen der Kontrolltiergruppen verglichen und die Temperaturunterschiede mit dem MANN-WHITNEY-U-Test auf Signifikanz geprüft. • 2. […] Dazu wurde bei 10 männlichen, 20-26 g schweren Mäusen ein Krampfzustand mit Wechselstrom (50 mA, 50 Hz, 0,2 sec Dauer) über mit physiologischer : Kochsalz-Lösung angefeuchtete, an den Kopf der Tiere gelegte Metallelektroden erzeugt, wobei das Ausbleiben der tonischen Extensorkomponente dieses Krampfes 150 Minuten nach Substanzgabe als antikonvulsive Wirkung gewertet wurde.

[2] = system: durch Reserpin hervorgerufene Hypothermie bei Mäusen; assay: Antidepressant effect: antagonism of reserpine-induced hypothermia (Versuch 1); type: in vivo, Maus; settings: 40 mg/kg p.o., 17 h after 3 mg/kg Reserpin s.c.; maximal re-rise of body temperature versus controls, measured 1 - 4 h after dosing; * = significant versus controls, p ≤ 0,05
Source text: as §1

[3] = system: Muskelrelax. + Sedierung Maus; assay: Muscle relaxation and sedation (Versuch 3); type: in vivo; settings: mouse; method text not readable (image)
[4] = male mice, 50 mA, 50 Hz, 0,2 sec, absence of tonic extensor component 150 min after dosing, ED50 by LITCHFIELD and WILCOXON, read-out: Versuch 2 Elektrokrampf Maus ED50-Hemmung

| Compound | ED50 [1, 4] [mg/kg] | Versuch 1 Reserpin Maus 40 mg/kg: +°C [2] | ED50 [3] [mg/kg] | ED50 ([1]; read-out: Versuch 2 Elektrokrampf Maus ED50-Hemmung mg/kg) [mg/kg] |
| --- | --- | --- | --- | --- |
| Nc1c(Br)cc(OCC2CNCCO2)cc1Br (stereo not drawn) [C, 2-(4-Amino-3,5-dibrom-phenoxy-methylen)-morpholin-hydrochlorid] | 17.5 | 7,3* °C | 21 | – |
| Nc1c(Br)cc(Br)cc1OCC1CNCCO1 (stereo not drawn) [A, 2-(2-Amino-3,5-dibrom-phenoxy-methylen)-morpholin-hydrochlorid] | 26.5 | 10,7* °C | > 200 | – |
| CC(C)(C)N1CCOC(COc2cc(Br)cc(Br)c2N)C1 (stereo not drawn) [D, 2-(2-Amino-3,5-dibrom-phenoxy-methylen)-4-tert.butyl-morpholin-hydrochlorid] | 150 | 0,6 °C | > 200 | – |
| CCOc1ccccc1OCC1CNCCO1 (stereo not drawn) [F, 2-(2-Äthoxy-phenoxy-methylen)-morpholin-hydrochlorid, reference compound] | – | 9,8* °C | ~200 | 42 |
| CC(C)N1CCOC(COc2cc(Br)c(N)c(Br)c2)C1 (stereo not drawn) [B, 2-(4-Amino-3,5-dibrom-phenoxy-methylen)-4-isopropyl-morpholin-hydrochlorid] | 26 | 8,4* °C | 60 | – |
| CC(C)N1CCOC(COc2cc(Br)c(Cl)cc2N)C1 (stereo not drawn) [E, 2-(2-Amino-5-brom-4-chlor-phenoxy-methylen)-4-isopronyl-morpholin-dihydrochlorid] | 200 | 1,0 °C | > 200 | – |
